2 compounds from paper PMC9730833, “Targeting OCT2 with Duloxetine to Prevent Oxaliplatin-induced Peripheral Neurotoxicity” (Cancer Research Communications, 2022) can be followed below.

Format in all cases: cell-based
Experiment [1] deals with T1, OCT2 (hOCT2) (Homo sapiens, UniProt O15244).
T1 construct: gene SLC22A2
T1 sequence (O15244 1-555): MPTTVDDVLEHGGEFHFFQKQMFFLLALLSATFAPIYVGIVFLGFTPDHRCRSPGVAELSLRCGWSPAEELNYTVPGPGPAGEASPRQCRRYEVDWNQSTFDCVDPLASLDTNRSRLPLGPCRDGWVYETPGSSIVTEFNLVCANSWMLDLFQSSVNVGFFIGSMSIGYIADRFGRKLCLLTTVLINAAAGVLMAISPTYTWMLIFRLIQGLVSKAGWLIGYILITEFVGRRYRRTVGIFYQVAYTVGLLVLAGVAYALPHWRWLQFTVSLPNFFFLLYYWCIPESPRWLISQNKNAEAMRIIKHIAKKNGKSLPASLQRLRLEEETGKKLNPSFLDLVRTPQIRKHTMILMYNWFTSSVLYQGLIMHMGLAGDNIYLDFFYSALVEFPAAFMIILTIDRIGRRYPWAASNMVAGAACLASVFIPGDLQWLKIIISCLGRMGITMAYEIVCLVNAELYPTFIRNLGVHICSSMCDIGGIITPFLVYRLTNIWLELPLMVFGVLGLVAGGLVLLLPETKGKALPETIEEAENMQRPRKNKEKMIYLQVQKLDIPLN
Put plainly: fluorescent substrate uptake in HEK293 and Hela cells overexpressing hOCT2.

The target in experiment [2] is T2, OCT2 (mOCT2) (Mus musculus, UniProt O70577).
T2 construct: gene Slc22a2
T2 sequence (O70577 1-553): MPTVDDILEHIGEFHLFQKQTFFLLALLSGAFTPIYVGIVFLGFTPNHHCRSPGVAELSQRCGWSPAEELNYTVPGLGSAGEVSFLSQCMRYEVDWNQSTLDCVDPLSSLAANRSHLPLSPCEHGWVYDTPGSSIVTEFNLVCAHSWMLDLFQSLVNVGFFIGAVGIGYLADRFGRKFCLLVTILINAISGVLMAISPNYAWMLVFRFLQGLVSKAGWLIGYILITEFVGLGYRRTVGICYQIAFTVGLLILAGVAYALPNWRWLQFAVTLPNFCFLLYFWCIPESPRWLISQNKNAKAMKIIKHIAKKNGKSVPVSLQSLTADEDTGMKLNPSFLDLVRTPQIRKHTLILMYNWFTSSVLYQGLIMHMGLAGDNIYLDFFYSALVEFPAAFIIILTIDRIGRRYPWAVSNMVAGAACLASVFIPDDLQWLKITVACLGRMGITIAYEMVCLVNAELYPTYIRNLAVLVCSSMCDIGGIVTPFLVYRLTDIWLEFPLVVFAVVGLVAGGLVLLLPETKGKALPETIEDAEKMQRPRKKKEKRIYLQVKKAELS
Description: fluorescent substrate uptake in cells overexpressing mOCT2; uptake impaired in OCT1/[…](−/−) satellite glial cells.

The target in experiment [3] is T1, OCT2 (hOCT2). Put plainly: inhibition of ASP uptake in Hela cells overexpressing hOCT2 ([…] in HEK293 cells).
Experiment [4] concerns the target T2, OCT2 (mOCT2). Description: inhibition of TEA, oxaliplatin and ASP uptake in HEK293 cells overexpressing mOCT2; reversible on washout.
A further experiment concerns the target T3, OCT2 (rOCT2) (Rattus norvegicus, UniProt Q9R0W2).
T3 construct: gene Slc22a2
T3 sequence (Q9R0W2 1-555): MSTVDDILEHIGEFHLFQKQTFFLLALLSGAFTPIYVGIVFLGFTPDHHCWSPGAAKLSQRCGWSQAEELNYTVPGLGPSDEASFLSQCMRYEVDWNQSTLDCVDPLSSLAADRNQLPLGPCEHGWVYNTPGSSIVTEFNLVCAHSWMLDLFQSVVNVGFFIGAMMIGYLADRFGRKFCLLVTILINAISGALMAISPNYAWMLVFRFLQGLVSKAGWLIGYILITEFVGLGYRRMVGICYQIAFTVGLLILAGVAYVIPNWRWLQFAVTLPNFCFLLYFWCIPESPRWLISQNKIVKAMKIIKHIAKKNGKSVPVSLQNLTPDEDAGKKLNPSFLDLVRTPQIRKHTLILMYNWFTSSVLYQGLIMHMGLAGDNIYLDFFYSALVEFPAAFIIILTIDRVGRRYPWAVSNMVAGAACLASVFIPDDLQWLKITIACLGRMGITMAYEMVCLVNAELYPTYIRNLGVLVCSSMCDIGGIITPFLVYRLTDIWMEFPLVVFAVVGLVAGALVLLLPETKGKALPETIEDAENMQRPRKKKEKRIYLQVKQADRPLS
Description: inhibition of TEA uptake in HEK293 cells overexpressing rOCT2.

Take `CN(C)c1ccc(C=Cc2cc[n+](C)cc2)cc1` [4-(4-(dimethylamino)styryl)-N-methylpyridinium iodide]: at OCT2 (hOCT2) [1], the “fluorescent substrate uptake in HEK293 and Hela cells overexpressing hOCT2” value is “Concentration-dependent inhibition of OCT2-dependent ASP transport by duloxetine in HEK293 and Hela cells overexpressing hOCT2”. The “fluorescent substrate uptake in cells overexpressing mOCT2; uptake impaired in O” value at OCT2 (mOCT2) [2] was “ASP was taken up in OCT2-proficient cells and uptake was significantly impaired under OCT2-deficient conditions”.

Consider `CNCC[C@H](Oc1cccc2ccccc12)c1cccs1` [duloxetine], for which, on OCT2 (hOCT2) [3], 3.98 µM corresponded to half-maximal inhibition (IC50). Besides, the “inhibition of TEA, oxaliplatin and ASP uptake in HEK293 cells overexpressing mOC” value against OCT2 (mOCT2) [4] was “These studies confirmed that duloxetine inhibits the transport of TEA by mouse, rat, and human OCT2”. Also, at OCT2 (rOCT2), the “inhibition of TEA uptake in HEK293 cells overexpressing rOCT2” value is “These studies confirmed that duloxetine inhibits the transport of TEA by mouse, rat, and human OCT2”.

A word on the IC50: it is the concentration needed to halve the response being measured.
